Marks after values point to notes of the source that are not given here.
What was measured:
[1] = tested on: BBM Fe-related proteins and intestinal bacterial populations; conditions: in vivo; cited from earlier work
[2] = Pectoral muscle glycogen analysis after intraamniotic administration; format: in vivo, Gallus gallus; conditions: 5 wt. % inulin intraamniotic, day 17; pectoral muscle at hatch
Description: (§1) Cornish-cross fertile broiler eggs (Gallus gallus, n = 39) were obtained from a commercial hatchery (Moyer’s chicks, Quakertown, PA, USA). The eggs were incubated under optimal conditions at the Cornell University Animal Science Poultry Farm Incubator [18]. All animal protocols were approved by Cornell University Institutional Animal Care and Use committee (IACUC #2020-0077). At day 17 of embryonic incubation, eggs containing viable embryos were weighed and divided into 5 groups, with all treatment groups assigned eggs of similar weight frequency distribution. Each group was then injected with the specific solution (1 mL per egg) with a 21-gauge needle into the amniotic fluid. Treatments in powder form were separately diluted in DI H2O. Two treatment groups (1.25, 2.5 wt. %), two controls (H2O and non-injected), and a positive control (5 wt. % inulin) were administered. After injection, the injection holes were sealed with cellophane tape and the eggs were placed in hatching baskets such that each treatment was equally represented at each incubator location. Immediately upon hatch (day 21), blood was taken for hemoglobin determination and all chicks were then euthanized by CO2 exposure. The small intestine, pectoral muscle, cecum, and liver were collected, immediately frozen in liquid nitrogen, and then stored in a -80° C. freezer until analysis.
Glycogen analysis was obtained from pectoralis muscle as previously described. Briefly, the frozen pectoral muscle samples were homogenized in 8 wt. % perchloric acid. Samples were then centrifuged at 12,000 × g for 15 minutes. The supernatant was removed, and 1.0 mL of petroleum ether was added to each tube. After mixing, the petroleum ether fraction was removed and samples from the bottom layer were transferred to a 96-well plate containing 300 µL of color reagent. All samples were read at a wavelength of 450 nm in an ELISA reader and the amount of glycogen was calculated according to a standard curve. The amount of glycogen present in pectoral sample was determined by multiplying the weight of the tissue by the amount of glycogen per 1 g of wet tissue.

duodenum = assay: Duodenal tissue morphology examination (villi, crypts, goblet cells, Paneth cells); format: in vivo, Gallus gallus; conditions: 5 wt. % inulin intraamniotic, day 17; duodenum at hatch
Description: as §1, with “All animal protocols were approved by Cornell University Institutional Animal Care and Use committee (IACUC #2020-0077). At day 17 of embryonic incubation, eggs containing viable embryos were weighed and divided into 5 groups, with all treatment groups assigned eggs of similar weight frequency distribution.” left out, “Two treatment groups (1.25, 2.5 wt. %), two controls (H2O and non-injected), and a positive control (5 wt. % inulin) were administered.” left out
Intestinal morphology examination was performed as was previously described. Duodenum samples were fixed in fresh 4 wt. % (v/v) buffered formaldehyde, dehydrated, cleared, and embedded in paraffin. Serial sections were cut at 5 µm and placed on glass slides. Intestinal sections were deparaffinized in xylene, rehydrated in a graded alcohol series, stained with Alcian Blue/Periodic acid-Schiff, and examined by light microscopy. The following variables were measured in the intestine: villus height, villus width, crypt depth, Paneth cell number per crypt, Paneth cell width, goblet cell number, goblet cell diameter, types of goblet cells in the villi epithelium, and types of goblet cells within the crypts. Measurements in each segment were performed with a light microscope using CellSens Standard software (Olympus, Waltham, MA, USA).

[3] = Body weight and cecum weight at hatch after intraamniotic administration; format: in vivo, Gallus gallus
Description: as §1

Clostridium spp. = assay: Duodenal bacterial populations by PCR of 16S rDNA: Clostridium; format: in vivo, Gallus gallus; conditions: 5 wt. % inulin vs no injection and H2O injection controls, p < 0.05; duodenum, day of hatch
Description: as §1, with “Immediately upon hatch (day 21), blood was taken for hemoglobin determination and all chicks were then euthanized by CO2 exposure. The small intestine, pectoral muscle, cecum, and liver were collected, immediately frozen in liquid nitrogen, and then stored in a -80° C. freezer until analysis.” left out
(§2) Primers for Lactobacillus, Bifidobacterium, L. Plantarum, Clostridium, and E. coli were designed according to previously published data. […] PCR products were separated by electrophoresis on 2 wt. % agarose gel, stained with ethidium bromide, and quantified using the Quantity One 1-D analysis software (BioRad, Hercules, CA, USA).

L. plantarum = assay: Duodenal bacterial populations by PCR of 16S rDNA: L. plantarum; format: in vivo, Gallus gallus; conditions: 5 wt. % inulin vs H2O injected control, p < 0.05; duodenum, day of hatch
Description: as §1, with “Immediately upon hatch (day 21), blood was taken for hemoglobin determination and all chicks were then euthanized by CO2 exposure. The small intestine, pectoral muscle, cecum, and liver were collected, immediately frozen in liquid nitrogen, and then stored in a -80° C. freezer until analysis.” left out
as §2

[4] = Blood hemoglobin (QuantiChrom Hemoglobin Assay) at hatch after intraamniotic administration; format: in vivo, Gallus gallus; conditions: 5 wt. % inulin intraamniotic, day 17; blood at hatch
Description: as §1, with “All animal protocols were approved by Cornell University Institutional Animal Care and Use committee (IACUC #2020-0077). At day 17 of embryonic incubation, eggs containing viable embryos were weighed and divided into 5 groups, with all treatment groups assigned eggs of similar weight frequency distribution.” left out, “Two treatment groups (1.25, 2.5 wt. %), two controls (H2O and non-injected), and a positive control (5 wt. % inulin) were administered.” left out
Blood was collected using micro-hematocrit heparinized capillary tubes (Fisher Scientific, Waltham, MA, USA). Blood Hb concentrations were determined spectrophotometrically using the QuantiChromTM Hemoglobin Assay (DIHB-250, BioAssay Systems, Hayward, CA, USA) following the kit manufacturer’s instructions.

[5] = 5 wt. % inulin intraamniotic, day 17, at hatch

O=c1c(-c2ccc(O)cc2)coc2cc(O)ccc12 [daidzein]
Expression of BBM Fe-related proteins and intestinal bacterial populations [1]: affected

inulin [reference compound]
Average Glycogen [2]: 0.002 ± 0.001 ^b mg/g
# Crypt Paneth Cells (duodenum): 2.56 ± 0.09 ^c
Crypt Depth (duodenum): 35.00 ± 0.43 ^b µm
Crypt Goblet Cell Diameter (duodenum): 2.51 ± 0.02 ^c µm
Crypt Goblet Cell Number Acidic (duodenum): 7.97 ± 0.16 ^b Unit
Crypt Goblet Cell Number Mixture (duodenum): 1.19 ± 0.08 ^c Unit
Crypt Goblet Cell Number Neutral (duodenum): 0.00 ± 0.00 ^a Unit
Crypt Goblet Cell Number Total (duodenum): 9.15 ± 0.16 ^b Unit
Crypt Paneth cell Diameter (duodenum): 1.68 ± 0.03 ^b µm
Villi Goblet Cell Diameter (duodenum): 2.74 ± 0.03 ^e µm
Villi Goblet Cell Number Acidic (duodenum): 16.39 ± 0.54 ^c Unit
Villi Goblet Cell Number Mixture (duodenum): 6.53 ± 0.30 ^a Unit
Villi Goblet Cell Number Neutral (duodenum): 0.10 ± 0.02 ^b Unit
Villi Goblet Cell Number Total (duodenum): 23.02 ± 0.60 ^b Unit
Villus Height (duodenum): 246.64 ± 5.14 ^a µm
Villus Surface Area (duodenum): 206.92 ± 6.37 ^a mm2
Villus Width (duodenum): 50.98 ± 1.03 ^a µm
Average Body Weight [3, 5]: 46.04 ± 1.18 ^ab g
Average Cecum Weight [3, 5]: 0.43 ± 0.05 ^b g
Cecum weight of no injection and H2O groups compared to treated group ([3]; 5 wt. % inulin, p < 0.05): significantly greater values
Relative abundance of Clostridium spp. (Clostridium spp.): significantly increased
Relative abundance of L. plantarum (L. plantarum): significantly increased
Average Hb [4]: 9.56 ± 0.92 ^c g/dL
